The values that follow come from patent US8895598B2, “Methods of treating a flaviviridae family viral infection, compositions for treating a flaviviridae family viral infection, and screening assays for identifying compositions for treating a flaviviridae family viral infection” (priority 2007, dated 2014).

Each structure is given as a SMILES string. “Also recorded” adds a separate entry of the source. Where a name gives a salt, the structure may show the parent alone. Read-outs that look alike come from different tables or passages of the source.

Series [1] deals with HCV RNA replication (full-length HCV RNA genome harboring a Luciferase reporter gene). Briefly: Luciferase reporter-linked HCV replication assay in Huh7.5 cells. In kind it is cell-based, Hepatitis C Virus. Conditions: for activity at 5 µM / activity at 10 µM: Hepatitis C virus, Huh7.5. On the procedure:
For example, HCV replication assays employing a luciferase reporter-linked HCV genome in the presence of various combinations of clemizole and an NS3 protease inhibitor (SCH503034) are shown in FIGS. 1A and 1B. In such assays, luciferase activity is directly proportional to HCV RNA genome replication. […] The results can be plotted on a linear or log scale as a function of drug concentrations to generate replication inhibition curves.
Luciferase assays were performed at 72 hr.
Medium was changed daily.
The experiment was repeated four times, each time with triplicates.

The conditions of series [2]: cited from earlier work.
The conditions of series [3]: human, in vivo; cited from earlier work.
Series [4] relates to HCV (genotype 4). The series can be described thus: Treatment of patients chronically infected with HCV, serum HCV viral load. In kind it is in vivo, human. On the procedure: Three patients chronically-infected with HCV (genotype 4) were treated in accordance with an embodiment of the method of the invention. All were male and had baseline ALT elevations and significant HCV viral loads ranging from 290,000-730,000 IU/ml.
After the first four weeks of clemizole monotherapy, pegylated interferon was added.

Series [5] concerns the target NS4B binding to the 3′ terminus of the HCV negative strand RNA (Hepatitis C virus genotype 1a, UniProt P27958). The series can be described thus: Microfluidic (MITOMI) in vitro RNA binding assay of NS4B.
Series [6] relates to W55R mutant J6/JFH RNA. The series can be described thus: Replication assays with the clemizole-resistant W55R mutant. In kind it is cell-based, Hepatitis C Virus.
The target of series [7] is HuR binding to the consensus 4A RNA sequence (Homo sapiens, UniProt Q15717). The series can be described thus: Specificity: HuR binding to 4A RNA by microfluidics. To be noted: hits at 0.1 mM. On the procedure: Next a standard 25 μL TNT T7 coupled wheat germ extract mixture (Promega) was prepared and spiked with 1 μL tRNALys-bodipy-fl (Promega) and 2 μL of plasmid DNA template coding for the appropriate protein (HuR, HuD or Gus). The mixture was immediately loaded into the device and flushed for 5 min, after which the chamber valves were opened allowing for dead end filling of the chambers with wheat germ extract. The chamber valves were again closed and flushing continued for an additional 5 min. Next the segregation valves separating each unit cell were closed, followed by opening of the chamber valves allowing for equilibration of the unit cell by diffusion. The entire device was heated to 30° C. on a temperature controlled microscope stage and incubated for up to 90 min to complete protein synthesis, binding of protein to the surface bound biotinylated-5-histidine antibody, solvation of target RNA, and equilibration of proteins and target RNA. […] Radial closure prevents solvent pockets from forming between the two interfaces and effectively creates zero dead volume while preserving the equilibrium concentrations of the molecular interactions to be detected. This was followed by a 5 min PBS wash to remove untapped unbound material. The device was then imaged on a modified array WoRxe (AppliedPrecision) microarray scanner to detect protein synthesis and the trapped molecules. […]

Series [8] addresses T1, W55R NS4B mutant binding to HCV RNA (Hepatitis C virus genotype 1a, UniProt P27958, A1893V/D1840G/F1898S/L1839I/R1905H/S1900A/W1766R).
T1 construct: made in house; host or cells: coupled transcription/translation rabbit reticulocyte system (Promega) with canine microsomal membranes
Briefly: Microfluidic in vitro RNA binding assay of W55R NS4B mutant. Conditions: in the presence of 10 nM clemizole.

The test system of series [9] is R214Q mutant HCV RNA. The series can be described thus: Luciferase reporter linked replication assay with the clemizole-resistant R214Q mutant. In kind it is cell-based. Conditions: Hepatitis C virus, read-out: EC50 on the R214Q mutant. (In general: Reporter assays use an easily measured gene product as a stand-in for the process of interest.)
Series [10] deals with Huh7.5 cells. The series can be described thus: Alamar Blue-based viability assay. Conditions: HCV-infected Huh7.5 cells, FIG. 15. On the procedure:
(§1) The in vivo antiviral effect on HCV RNA replication of the inhibitory compounds identified in the above screen was measured. Following electroporation with a full-length HCV RNA genome harboring a Luciferase reporter gene^28, Huh7.5 cells were grown in the presence of increasing concentrations of these compounds. Luciferase assays were performed at 72 hr. In parallel, the viability of cells in the presence of the compounds was assessed by an Alamar Blue-based assay.
(§2) Following 72 hrs of treatment, cells were incubated for 3 hrs at 37° C. in the presence of 10% Alamar Blue reagent (TREK Diagnostic Systems). Plates were then scanned and fluorescence was detected by using FLEXstation II 384 (Molecular Devices, Inc.).
(In general: Alamar Blue is a resazurin reagent that responds to reducing activity.)

For series [11] the following is noted: guinea pig; cited from earlier work.
The test system of series [12] is infectious HCV clone (J6/JFH). In kind it is cell-based, Hepatitis C Virus. To be noted: FIG. 15, 72 hours.
The target in series [13] is HuR binding to the 3′ terminus of the negative HCV RNA strand (Homo sapiens, UniProt Q15717). The series can be described thus: Specificity: HuR binding to the 3′ terminus of the negative HCV RNA strand. Conditions: hits at 0.1 mM. On the procedure: Specificity of hits identified in the small molecule screen: To determine the specificity of the hits identified in the small molecule screen, the HuR protein (one of the human RNA binding protein used to validate our RNA binding assay) was selected. […] Binding of HuR to the consensus 4A RNA sequence was tested in the presence of the inhibitory molecules shown to inhibit RNA binding by NS4B. […] Similarly, 0.1 mM of the identified compounds didn't have an inhibitory effect on binding of HuR to the 3′ terminus of the negative HCV RNA strand.

A short description of series [14]: Alamar Blue-based viability assay. To be noted: human. On the procedure:
as §1, §2

The mark [15] stands for this setting: read-out: AV (HCV RNA replication, percent of normal activity remaining).
Setting [16] is: read-out: AV score (binned residual HCV replication).
[17] abbreviates: 40 to 160 mg/day, 1 to 12 weeks.
The mark [18] stands for this setting: 3 patients, clemizole 100 mg po BID monotherapy.

As for `CC(C)(C)c1ccc(Cn2cnc3ccccc32)cc1`, in [1] (setting [15]), the activity at 5 µM was found to be 30% and the activity at 10 µM is 12%. For the same compound, in series [1] (setting [16]), the activity at 5 µM is 10 to 30% and the activity at 10 µM was in the range of 10 to 30%.
Take `OCc1nc2ccccc2n1Cc1ccc(Br)cc1`: in [1] (setting [16]), the activity at 5 µM was 30 to 60% and the activity at 10 µM lay within 10 to 30%. Besides, the activity at 10 µM in series [1] (setting [15]) was 28%.
Consider `Clc1ccc(Cn2c(CN3CCCC3)nc3ccccc32)cc1` [clemizole], for which, in series [2] (setting [17]), the “patients reporting excellent relief of itching” value is reported as 66% and the “patients reporting good relief of itching” value is reported as 23%. In addition, the “patients with mild side effects (drowsiness most common)” value in series [2] (human, in vivo) is 4 patients. Besides, in [3], the “drowsiness, share of the patients treated (Zierz and Greither)” value was 1.3%. For the same compound, in series [4] (setting [18]), the “HCV viral load at week 2” value was “drops in HCV viral load” and the “HCV viral load at week 4” value is given as “nearly at or below the limit of HCV detection; also recorded: completely, or nearly, undetectable”. The “HCV viral load after 8 weeks” value in series [4] (4 weeks clemizole monotherapy plus 4 weeks clemizole with standard dose pegylated interferon) was “below the limit of detection”. For the same compound, the IC50 (usually the concentration that inhibits the measured activity by half) in [5] was around 0.024 µM. Besides, the “reduction of RNA binding of wild type NS4B” value in series [5] (in the presence of 10 nM clemizole) is reported as around 2 fold. For the same compound, the “replication of W55R mutant in presence of clemizole” value in series [6] (10 μM clemizole, whole cell RNA (colonies) or in vitro-transcribed luciferase RNA) is “unaffected”. Further, the EC50 in series [6] (Hepatitis C virus, read-out: EC50 on the W55R mutant J6/JFH RNA) is around 18 µM. In addition, the “effect on binding of HuR to 4A RNA” value in [7] is “No inhibitory effect”. The “reduction of RNA binding of W55R NS4B mutant” value in [8] was around 2 fold. Moreover, the EC50 in [9] is 40.3 µM. Moreover, in series [10], the “toxicity to the cell in real-time PCR experiment” value was “no measurable toxicity to the cell”. Further, in [11], the “prevention of histamine-induced asthma” value was “superior to atropine and other antihistamines in preventing histamine-induced asthma”. The “HCV replication levels by real-time PCR” value in series [12] is given as “inhibits HCV replication”. Also, in series [1] (SCH503034 1-5 micromolar, 72 hours), the “effect of adding clemizole to NS3 protease inhibitor SCH503034 on HCV replication” value is reported as “increase the inhibition of HCV replication in a dose-dependent manner by up to several logs”.
`O=C(O)C1=CC(=C(c2ccc(O)c(C(=O)O)c2)c2ccc(O)c(C(=O)O)c2)C=CC1=O` [ATA, Aurintricarboxilic acid]: in [13], the “effect on binding of HuR to the 3′ terminus of the negative HCV RNA strand” value is “significantly inhibited”. Further, the “effect on binding of HuR to 4A RNA” value in series [7] is “significantly inhibited; also recorded: affected”.
Regarding `Brc1ccc(Cn2cnc3ccccc32)cc1`, in [1] (setting [15]), the activity at 5 µM is 23% and the activity at 10 µM came to 8%. Besides, in series [1] (setting [16]), the activity at 5 µM is 10 to 30% and the activity at 10 µM was 10 to 30%.
`Cc1nc2cc(Cl)ccc2n1Cc1ccccc1`: in series [1] (setting [15]), the activity at 5 µM was found to be 87% and the activity at 10 µM was 60%. Further, in series [1] (setting [16]), the activity at 5 µM was in the range of 60 to 90% and the activity at 10 µM was 60 to 90%.
For the compound `Cc1ccc(Cn2cnc3ccccc32)cc1`, the activity at 5 µM in series [1] (setting [15]) is 49%; in series [1] (setting [16]) it was 30 to 60%. Moreover, the activity at 10 µM in series [1] (setting [15]) was 23%; in [1] (setting [16]), 10 to 30%.
Turning to `COC(=O)c1ccc(Cn2cnc3ccccc32)cc1`, in series [1] (setting [15]), the activity at 5 µM worked out at 74% and the activity at 10 µM stood at 54%. Besides, in [1] (setting [16]), the activity at 5 µM fell in the range of 60 to 90% and the activity at 10 µM was in the range of 30 to 60%.
For `Cc1cc2ncn(Cc3ccc(Cl)cc3Cl)c2cc1C`, in that order: 30%, 8%, 10 to 30% and 10 to 30%.
The matching figures for `Cc1nc2ccccc2n1Cc1ccc(Br)cc1`: 3%, 2%, 10 to 30% and 10 to 30%.
For the compound `Clc1ccc(Cn2c(CN3CCCC3)nc3ccccc32)cc1` [drawing 415], in series [14], the viability (in general, a read-out of living cells in per cent, often relative to untreated cells) at 72 h, 5 µM stood at 107% and the viability at 72 h, 10 µM was determined as 93%. Also, in series [1] (setting [15]), the activity at 5 µM stood at 62% and the activity at 10 µM turned out to be 37%. In [1] (setting [16]), the activity at 5 µM lay within 60 to 90% and the activity at 10 µM lay within 30 to 60%.
`COc1ccc(Cn2cnc3ccccc32)cc1`: in series [1] (setting [15]), the activity at 5 µM came out at 70% and the activity at 10 µM worked out at 58%. Further, in [1] (setting [16]), the activity at 5 µM lay within 60 to 90% and the activity at 10 µM lay within 30 to 60%.
Consider `Clc1ccc(Cn2c(CN3CCCC3)nc3ccccc32)cc1` [Clemizole hydrochloride, clemizole hydrochloride, reference compound], for which the “decrease in viral replication” value in series [1] (20 μM, 72 hr) is reported as “tenfold”.
